Laboratory results reported in ChEMBL document CHEMBL5360558, “Molecular design, synthesis and anticancer activity of new thiopyrano[2,3-d]thiazoles based on 5-hydroxy-1,4-naphthoquinone (juglone)” (Eur J Med Chem, 2023).

What was measured:
HCT-116 = test: Cytotoxicity against human HCT-116 cells assessed as cell growth inhibition incubated for 72 hrs by MTT assay; format: functional, cell-based; settings: HCT-116, 72 h
[1] = Cytotoxicity against human HCT116-p53-null cells assessed as cell growth inhibition incubated for 72 hrs by MTT assay; format: functional, cell-based
KB 3-1 = test: Cytotoxicity against human KB 3-1 cells assessed as cell growth inhibition incubated for 72 hrs by MTT assay; format: functional, cell-based; settings: KB 3-1, 72 h
MCF7 = test: Cytotoxicity against human MCF7 cells assessed as cell growth inhibition incubated for 72 hrs by MTT assay; format: functional, cell-based; settings: MCF7, 72 h
K562 = test: Cytotoxicity against human K562 cells assessed as cell growth inhibition incubated for 72 hrs by MTT assay; format: functional, cell-based; settings: K562, 72 h
[2] = Cytotoxicity against mouse J774.2 cells assessed as cell growth inhibition incubated for 72 hrs by MTT assay; format: toxicity, cell-based
Salmon testes DNA = test: Displacement of methyl green from salmon sperm DNA assessed as DNA intercalation at 10 uM incubated for 24 hrs by fluorescence plate reader method relative to control; format: nucleic-acid assay; settings: Salmo salar
HaCaT = test: (§1) Cytotoxicity against human HaCaT cells assessed as cell growth inhibition incubated for 72 hrs by MTT assay; format: toxicity, cell-based; settings: hacat, 72 h
[3] = Cytotoxicity against mouse NIH3T3 cells assessed as cell growth inhibition incubated for 72 hrs by MTT assay; format: toxicity, cell-based
[4] = as §1; format: toxicity, cell-based; settings: HaCaT cells
[5] = GSH reactivity of compound at pH 7.4 phosphate buffer assessed as GSH-adduct formation at 1 mM incubated for 1 hr by spectrophotometric analysis; format: physicochemical; settings: pH 7.4, 1 h, 1000 µM
[6] = GSH reactivity of compound at pH 7.4 phosphate buffer assessed as GSH-adduct formation at 1 mM incubated for 1 hr in presence of sodium borohydride by spectrophotometric analysis; format: physicochemical; settings: pH 7.4, 1 h, 1000 µM
UO-31 = test: Anticancer activity against human UO-31 cells assessed as cell growth at 10 uM incubated for 48 hrs by sulforhodamine B assay; format: functional; settings: read-out: Activity
SF-539 = test: Anticancer activity against human SF-539 cells assessed as cell growth at 10 uM incubated for 48 hrs by sulforhodamine B assay; format: functional; settings: read-out: Activity
BT-549 = test: Anticancer activity against human BT-549 cells assessed as cell growth at 10 uM incubated for 48 hrs by sulforhodamine B assay; format: functional; settings: read-out: Activity
SR = test: Anticancer activity against human SR cells assessed as cell growth at 10 uM incubated for 48 hrs by sulforhodamine B assay; format: functional; settings: read-out: Activity
CAKI-1 = test: Anticancer activity against human CAKI-1 cells assessed as cell growth at 10 uM incubated for 48 hrs by sulforhodamine B assay; format: functional; settings: read-out: Activity
UACC-257 = test: Anticancer activity against human UACC-257 cells assessed as cell growth at 10 uM incubated for 48 hrs by sulforhodamine B assay; format: functional; settings: read-out: Activity
Malme-3M = test: Anticancer activity against human Malme-3M cells assessed as cell growth at 10 uM incubated for 48 hrs by sulforhodamine B assay; format: functional; settings: read-out: Activity
SF-295 = test: Anticancer activity against human SF-295 cells assessed as cell growth at 10 uM incubated for 48 hrs by sulforhodamine B assay; format: functional; settings: read-out: Activity
HOP-62 = test: Anticancer activity against human HOP-62 cells assessed as cell growth at 10 uM incubated for 48 hrs by sulforhodamine B assay; format: functional; settings: read-out: Activity
SN12C = test: Anticancer activity against human SN12C cells assessed as cell growth at 10 uM incubated for 48 hrs by sulforhodamine B assay; format: functional; settings: read-out: Activity
NCI-H322M = test: Anticancer activity against human NCI-H322M cells assessed as cell growth at 10 uM incubated for 48 hrs by sulforhodamine B assay; format: functional; settings: read-out: Activity
OVCAR-5 = test: Anticancer activity against human OVCAR-5 cells assessed as cell growth at 10 uM incubated for 48 hrs by sulforhodamine B assay; format: functional; settings: read-out: Activity
SK-MEL-28 = test: Anticancer activity against human SK-MEL-28 cells assessed as cell growth at 10 uM incubated for 48 hrs by sulforhodamine B assay; format: functional; settings: read-out: Activity
MDA-MB-435 = test: Anticancer activity against human MDA-MB-435 cells assessed as cell growth at 10 uM incubated for 48 hrs by sulforhodamine B assay; format: functional; settings: read-out: Activity
SK-MEL-5 = test: Anticancer activity against human SK-MEL-5 cells assessed as cell growth at 10 uM incubated for 48 hrs by sulforhodamine B assay; format: functional; settings: read-out: Activity
OVCAR-8 = test: Anticancer activity against human OVCAR-8 cells assessed as cell growth at 10 uM incubated for 48 hrs by sulforhodamine B assay; format: functional; settings: read-out: Activity
SNB-19 = test: Anticancer activity against human SNB-19 cells assessed as cell growth at 10 uM incubated for 48 hrs by sulforhodamine B assay; format: functional; settings: read-out: Activity
HCC 2998 = test: Anticancer activity against human HCC 2998 cells assessed as cell growth at 10 uM incubated for 48 hrs by sulforhodamine B assay; format: functional; settings: read-out: Activity
RXF 393 = test: Anticancer activity against human RXF 393 cells assessed as cell growth at 10 uM incubated for 48 hrs by sulforhodamine B assay; format: functional; settings: read-out: Activity
A498 = test: Anticancer activity against human A498 cells assessed as cell growth at 10 uM incubated for 48 hrs by sulforhodamine B assay; format: functional; settings: read-out: Activity
HCT-15 = test: Anticancer activity against human HCT-15 cells assessed as cell growth at 10 uM incubated for 48 hrs by sulforhodamine B assay; format: functional; settings: read-out: Activity
M14 = test: Anticancer activity against human M14 cells assessed as cell growth at 10 uM incubated for 48 hrs by sulforhodamine B assay; format: functional; settings: read-out: Activity

SMILES | IC50 (HCT-116) [µM] | IC50 [1] [µM] | IC50 (KB 3-1) [µM] | IC50 (MCF7) [µM] | IC50 (K562) [µM] | IC50 at 72 h [2] [µM] | Activity (Salmon testes DNA) [%] | IC50 at 72 h [3] [µM] | IC50 at 72 h [4] [µM] | further results
O=C1C2=C(C(=O)c3c(O)cccc31)C(/C=C/c1ccccc1)c1sc(=O)[nH]c1S2 (stereo unspecified) | 35.6 | 43.7 | 46.4 | 7.41 | 28.4 | 7.44 | 11.8 | – | – | –
O=C1C2=C(C(=O)c3ccccc31)C(c1ccco1)c1sc(=O)[nH]c1S2 (stereo unspecified) | 5.44 | 6.28 | 5.54 | 29 | 30.9 | 6.77 | 11.8 | 38.9 | – | Activity (HaCaT): Non-Toxic
O=C1C2=C(C(=O)c3c(O)cccc31)C(c1cc(Cl)ccc1O)c1sc(=O)[nH]c1S2 (stereo unspecified) | 0.75 | 3.86 | 3.64 | 9.34 | 11.8 | 5.25 | 29.5 | 37 | > 50 | –
O=C1C2=C(C(=O)c3c(O)cccc31)C(c1ccc(Br)cc1)c1sc(=O)[nH]c1S2 (stereo unspecified) | 4.7 | 3.82 | 2.74 | 31.2 | 6.31 | 2.03 | 29.5 | 30.4 | > 50 | –
C/C(=C\c1ccccc1)C1C2=C(Sc3[nH]c(=O)sc31)C(=O)c1cccc(O)c1C2=O (stereo unspecified) | 40.6 | 41.7 | 47.5 | > 50 | 33 | 30.8 | 29.5 | – | – | –
O=C1C=CC(=O)c2c(O)cccc21 [JUGLONE] | 31.6 | – | 26.4 | – | – | 13.4 | – | – | – | Activity [5]: Active; Activity [6]: Active
CC1(C)C2=C(Sc3[nH]c(=O)sc31)C(=O)c1cccc(O)c1C2=O | 12.9 | 36.2 | 23.4 | 9.48 | 26.8 | 26.4 | 42.5 | > 50 | > 50 | –
CN(C)c1ccc(C2C3=C(Sc4[nH]c(=O)sc42)C(=O)c2cccc(O)c2C3=O)cc1 (stereo unspecified) | 6.15 | 8.83 | 7.21 | > 50 | 22.9 | 26.9 | 55.4 | > 50 | > 50 | –
COc1ccc(C2C3=C(Sc4[nH]c(=O)sc42)C(=O)c2cccc(O)c2C3=O)cc1 (stereo unspecified) | 3.19 | 3.26 | 0.87 | 6.1 | 5.66 | 2.95 | 29.5 | 6.78 | 40.8 | –
O=C1C2=C(C(=O)c3c(O)cccc31)C(c1ccc(Cl)cc1)c1sc(=O)[nH]c1S2 (stereo unspecified) | 4.12 | 3.1 | 3.33 | 7.5 | 19.2 | 5.27 | 29.5 | 46.6 | > 50 | growth at 10 µM (UO-31): 39.8%; growth at 10 µM (SF-539): 35.1%; growth at 10 µM (BT-549): 39.5%; growth at 10 µM (SR): 38.6%; growth at 10 µM (CAKI-1): 36.7%
O=C1NC(=S)/C(=C/c2ccco2)S1 | – | – | – | – | – | – | – | – | – | Activity [5]: Active; Activity [6]: Active
O=C1C2=C(C(=O)c3c(O)cccc31)C(CCc1ccccc1)c1sc(=O)[nH]c1S2 (stereo unspecified) | > 50 | > 50 | > 50 | > 50 | > 50 | > 50 | 11.8 | – | – | –
O=C1C2=C(C(=O)c3c(O)cccc31)C(/C=C/c1ccccc1[N+](=O)[O-])c1sc(=O)[nH]c1S2 (stereo unspecified) | 0.94 | 2.16 | 6.94 | 0.95 | 15.7 | 0.83 | 53.2 | – | – | –
O=C1C2=C(C(=O)c3c(O)cccc31)C(c1cccs1)c1sc(=O)[nH]c1S2 (stereo unspecified) | 5.13 | 5.36 | 4.53 | 24.1 | 21.5 | 6.81 | 66.4 | 39.1 | – | growth at 10 µM (UACC-257): -93.1%; growth at 10 µM (Malme-3M): -99.4%; growth at 10 µM (SF-295): -93.5%; growth at 10 µM (HOP-62): -94.3%; growth at 10 µM (SN12C): -92.8%; growth at 10 µM (NCI-H322M): -96.8%; growth at 10 µM (UO-31): -92.9%; growth at 10 µM (OVCAR-5): -93%; growth at 10 µM (SK-MEL-28): -97.2%; growth at 10 µM (MDA-MB-435): -90.2%; growth at 10 µM (SF-539): -99.5%; growth at 10 µM (SK-MEL-5): -96.9%; growth at 10 µM (OVCAR-8): -94.6%; growth at 10 µM (BT-549): -99.9%; growth at 10 µM (SNB-19): -99.5%; growth at 10 µM (HCC 2998): -96.8%; growth at 10 µM (RXF 393): -97.4%; growth at 10 µM (A498): -98.7%; growth at 10 µM (HCT-15): -91.4%; growth at 10 µM (M14): -96.7%
